According to US20150313228A1, “SYNERGISTIC HERBICIDAL COMBINATIONS AND METHODS OF USE” (priority 2012, published 2015):

What was measured:
velvetleaf = assay: Post-emergence application in velvetleaf under greenhouse conditions (Example 8); assay type: in vivo
Source text: The following testing protocol was employed to evaluate the post-emergence application of herbicides and herbicide combinations as described in the following examples unless otherwise specified. The weed species to be treated were planted in 3.5 inch pots containing redi-earth potting mix and grown under greenhouse conditions. When the weed species reached a height of about four inches, herbicide was applied at the specified application rate using a track sprayer with a flat even nozzle type, 9501E nozzle size, and spray pressure of 165 kPa. After the application of the herbicide(s), the pots were only sub-irrigated as needed. Throughout the test period, temperature was maintained from about 20° C. to about 30° C. and relative humidity was maintained at about 30%. The plants were rated visually and percentage of weed control was determined for each treatment at 15 to 21 days after herbicide application.
Post-emergence application of several herbicides and herbicide combinations was evaluated in velvetleaf under greenhouse conditions. The plants were rated visually and percentage of weed control was determined at 24 days after herbicide application. The herbicides and herbicide combinations evaluated are listed in Table 8-A below together with the corresponding percent control data. The data represent an average value (n=6).
The results of the analysis are reported below in Table 8-B (glyphosate+dicamba), Table 8-C(glyphosate+metribuzin), and Table 8-D (dicamba+metribuzin).

[1] = test system: broad-leaf and grass weed species; assay: Field testing of pre-emergence application of dicamba and acetochlor in Argentina and/or South Africa (Example 10); conditions: for percent control Y (DIACAMBA OR ATRAZINE ALONE): early rating (14 day); for Y (dicamba alone): late rating (28 day);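 as to all read-outs here: percent weed control in field trials, rated at 14 days (early) and 28 days (late) after treatment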
soybeans = assay: Field screening for metribuzin tolerance in soybeans (Example 11, 13); assay type: in vivo, Glycine max; conditions: soybean lines containing a heterozygous (CT) allele of NGMAX006079502
Experimental: Field screening for metribuzin tolerance in soybeans was performed at the Monsanto Company Soybean Research Station near Mount Olive, N.C. in 2010 and 2011. Metribuzin application rate was 0.5 lbs/acre metribuzin (Sencor®, Bayer Crop Science, Research Triangle Park, N.C., U.S.A.) one day prior to planting. Rows were planted as single six foot row plots with 9 seed per foot. Multiple repetitions were grown per row. Within 24 hours after planting, the trial was irrigated with 0.5 inches of water to help incorporate and activate the herbicide. Injury ratings were taken fourteen to twenty one (14 to 21) days after planting using a 1 to 9 scale (for example, 1=no damage, 9=completely killed). After identifying the target region through the mapping population described in Example 12, a molecular marker was identified. An association study was done using a soybean molecular marker database. Over 200 commercial and breeding lines were characterized for metribuzin tolerance in field and greenhouse screening, as described in Example 11.

SMILES: COc1c(Cl)ccc(Cl)c1C(=O)O [Dicamba, 3,6-dichloro-2-methoxy benzoic acid]
- PERCENT CONTROL (ACTUAL) (velvetleaf; 280 g/ha, 24 days after application): 82.0%
- PERCENT CONTROL (ACTUAL) (velvetleaf; 560 g/ha, 24 days after application): 95.0%
- PERCENT CONTROL (ACTUAL) (velvetleaf; Table 8-D, velvetleaf, 24 days, dose 280 g/ha): 82.0%
- PERCENT CONTROL (ACTUAL) (velvetleaf; Table 8-D, velvetleaf, 24 days, dose 560 g/ha): 95.0%
- percent control Y (DIACAMBA OR ATRAZINE ALONE) ([1]; AMADE, 560 g/ha): 99.3%
- Y (dicamba alone) ([1]; AMADE, 560 g/ha): 83.1%
- percent control Y (DIACAMBA OR ATRAZINE ALONE) ([1]; AMAQU, 280 g/ha): 52.9%
- Y (dicamba alone) ([1]; AMAQU, 280 g/ha): 40.6%
- percent control Y (DIACAMBA OR ATRAZINE ALONE) ([1]; AMAQU, 560 g/ha): 61.4%
- Y (dicamba alone) ([1]; AMAQU, 560 g/ha): 54.3%
- percent control Y (DIACAMBA OR ATRAZINE ALONE) ([1]; ANOCR, 280 g/ha): 53.0%
- Y (dicamba alone) ([1]; ANOCR, 280 g/ha): 40.5%
- percent control Y (DIACAMBA OR ATRAZINE ALONE) ([1]; ANOCR, 560 g/ha): 66.1%
- Y (dicamba alone) ([1]; ANOCR, 560 g/ha): 54.5%
- percent control Y (DIACAMBA OR ATRAZINE ALONE) ([1]; BIDPI, 280 g/ha): 2.3%
- Y (dicamba alone) ([1]; BIDPI, 280 g/ha): 5.0%
- percent control Y (DIACAMBA OR ATRAZINE ALONE) ([1]; BIDPI, 560 g/ha): 74.5%
- Y (dicamba alone) ([1]; BIDPI, 560 g/ha): 72.5%
- Y (dicamba alone) ([1]; BRAER, 560 g/ha): 67.5%
- percent control Y (DIACAMBA OR ATRAZINE ALONE) ([1]; CHEAL, 280 g/ha): 56.7%
- Y (dicamba alone) ([1]; CHEAL, 280 g/ha): 38.2%
- percent control Y (DIACAMBA OR ATRAZINE ALONE) ([1]; CHEAL, 560 g/ha): 96.7%
- Y (dicamba alone) ([1]; CHEAL, 560 g/ha): 86.7%
- Y (dicamba alone) ([1]; CHRGA, 280 g/ha): 6.2%
- percent control Y (DIACAMBA OR ATRAZINE ALONE) ([1]; CHRGA, 560 g/ha): 98.0%
- Y (dicamba alone) ([1]; CHRGA, 560 g/ha): 100.0%
- percent control Y (DIACAMBA OR ATRAZINE ALONE) ([1]; COMBE, 280 g/ha): 2.7%
- Y (dicamba alone) ([1]; COMBE, 280 g/ha): 10.0%
- percent control Y (DIACAMBA OR ATRAZINE ALONE) ([1]; COMBE, 560 g/ha): 75.0%
- Y (dicamba alone) ([1]; COMBE, 560 g/ha): 76.3%
- percent control Y (DIACAMBA OR ATRAZINE ALONE) ([1]; CONFA, 280 g/ha): 1.3%
- Y (dicamba alone) ([1]; CONFA, 280 g/ha): 6.2%
- percent control Y (DIACAMBA OR ATRAZINE ALONE) ([1]; CONFA, 560 g/ha): 17.5%
- Y (dicamba alone) ([1]; CONFA, 560 g/ha): 55.0%
- percent control Y (DIACAMBA OR ATRAZINE ALONE) ([1]; CYNDA, 280 g/ha): 28.8%
- percent control Y (DIACAMBA OR ATRAZINE ALONE) ([1]; CYNDA, 560 g/ha): 47.7%
- percent control Y (DIACAMBA OR ATRAZINE ALONE) ([1]; CYPES, 280 g/ha): 1.0%
- Y (dicamba alone) ([1]; CYPES, 280 g/ha): 5.0%
- percent control Y (DIACAMBA OR ATRAZINE ALONE) ([1]; CYPES, 560 g/ha): 65.0%
- Y (dicamba alone) ([1]; CYPES, 560 g/ha): 63.3%
- percent control Y (DIACAMBA OR ATRAZINE ALONE) ([1]; CYPRO, 280 g/ha): 42.3%
- Y (dicamba alone) ([1]; CYPRO, 280 g/ha): 0.8%
- percent control Y (DIACAMBA OR ATRAZINE ALONE) ([1]; CYPRO, 560 g/ha): 44.4%
- Y (dicamba alone) ([1]; CYPRO, 560 g/ha): 15.4%
- percent control Y (DIACAMBA OR ATRAZINE ALONE) ([1]; DATFE, 280 g/ha): 18.5%
- Y (dicamba alone) ([1]; DATFE, 280 g/ha): 16.7%
- percent control Y (DIACAMBA OR ATRAZINE ALONE) ([1]; DATFE, 560 g/ha): 59.6%
- Y (dicamba alone) ([1]; DATFE, 560 g/ha): 58.5%
- percent control Y (DIACAMBA OR ATRAZINE ALONE) ([1]; DIGER, 280 g/ha): 2.5%
- Y (dicamba alone) ([1]; DIGER, 280 g/ha): 10.0%
- percent control Y (DIACAMBA OR ATRAZINE ALONE) ([1]; DIGER, 560 g/ha): 98.0%
- Y (dicamba alone) ([1]; DIGER, 560 g/ha): 100.0%
- percent control Y (DIACAMBA OR ATRAZINE ALONE) ([1]; DIGSA, 280 g/ha): 32.7%
- Y (dicamba alone) ([1]; DIGSA, 280 g/ha): 23.8%
- percent control Y (DIACAMBA OR ATRAZINE ALONE) ([1]; DIGSA, 560 g/ha): 45.6%
- Y (dicamba alone) ([1]; DIGSA, 560 g/ha): 32.7%
- Y (dicamba alone) ([1]; DTTAE, 280 g/ha): 6.2%
- Y (dicamba alone) ([1]; DTTAE, 560 g/ha): 100.0%
- percent control Y (DIACAMBA OR ATRAZINE ALONE) ([1]; ELEAF, 280 g/ha): 100.0%
- Y (dicamba alone) ([1]; ELEAF, 280 g/ha): 8.0%
- percent control Y (DIACAMBA OR ATRAZINE ALONE) ([1]; ELEAF, 560 g/ha): 100.0%
- Y (dicamba alone) ([1]; ELEAF, 560 g/ha): 97.5%
- percent control Y (DIACAMBA OR ATRAZINE ALONE) ([1]; HIBCA, 280 g/ha): 1.8%
- Y (dicamba alone) ([1]; HIBCA, 280 g/ha): 11.3%
- percent control Y (DIACAMBA OR ATRAZINE ALONE) ([1]; HIBCA, 560 g/ha): 42.5%
- Y (dicamba alone) ([1]; HIBCA, 560 g/ha): 55.0%
- Y (dicamba alone) ([1]; IPOBA, 280 g/ha): 8.8%
- Y (dicamba alone) ([1]; IPOBA, 560 g/ha): 0.0%
- percent control Y (DIACAMBA OR ATRAZINE ALONE) ([1]; IPOPD, 280 g/ha): 2.6%
- Y (dicamba alone) ([1]; IPOPD, 280 g/ha): 10.0%
- percent control Y (DIACAMBA OR ATRAZINE ALONE) ([1]; IPOPD, 560 g/ha): 21.3%
- Y (dicamba alone) ([1]; IPOPD, 560 g/ha): 45.0%
- percent control Y (DIACAMBA OR ATRAZINE ALONE) ([1]; OVERALL, 280 g/ha): 36.2%
- percent control Y (DIACAMBA OR ATRAZINE ALONE) ([1]; OVERALL, 560 g/ha): 57.4%
- Y (dicamba alone) ([1]; Overall, 280 g/ha): 29.8%
- Y (dicamba alone) ([1]; Overall, 560 g/ha): 51.7%
- percent control Y (DIACAMBA OR ATRAZINE ALONE) ([1]; PERCENT WEED FREE, 280 g/ha): 64.5%
- percent control Y (DIACAMBA OR ATRAZINE ALONE) ([1]; PERCENT WEED FREE, 560 g/ha): 74.2%
- percent control Y (DIACAMBA OR ATRAZINE ALONE) ([1]; POROL, 280 g/ha): 35.8%
- Y (dicamba alone) ([1]; POROL, 280 g/ha): 27.8%
- percent control Y (DIACAMBA OR ATRAZINE ALONE) ([1]; POROL, 560 g/ha): 49.2%
- Y (dicamba alone) ([1]; POROL, 560 g/ha): 45.0%
- Y (dicamba alone) ([1]; Percent Weed Free, 280 g/ha): 43.4%
- Y (dicamba alone) ([1]; Percent Weed Free, 560 g/ha): 54.3%
- percent control Y (DIACAMBA OR ATRAZINE ALONE) ([1]; RCHBR, 280 g/ha): 2.4%
- Y (dicamba alone) ([1]; RCHBR, 280 g/ha): 8.5%
- percent control Y (DIACAMBA OR ATRAZINE ALONE) ([1]; RCHBR, 560 g/ha): 89.0%
- Y (dicamba alone) ([1]; RCHBR, 560 g/ha): 88.8%
- percent control Y (DIACAMBA OR ATRAZINE ALONE) ([1]; TAGMI, 280 g/ha): 0.0%
- Y (dicamba alone) ([1]; TAGMI, 280 g/ha): 0.0%
- percent control Y (DIACAMBA OR ATRAZINE ALONE) ([1]; TAGMI, 560 g/ha): 92.5%
- Y (dicamba alone) ([1]; TAGMI, 560 g/ha): 64.3%
- percent control Y (DIACAMBA OR ATRAZINE ALONE) ([1]; XANST, 280 g/ha): 15.3%
- Y (dicamba alone) ([1]; XANST, 280 g/ha): 28.8%
- percent control Y (DIACAMBA OR ATRAZINE ALONE) ([1]; XANST, 560 g/ha): 43.3%
- Y (dicamba alone) ([1]; XANST, 560 g/ha): 32.5%

SMILES: CSc1nnc(C(C)(C)C)c(=O)n1N [Metribuzin, 4-amino-6-(1,1-dimethylethyl)-3-(methylthio)-1,2,4-triazin-5(4H)-one]
- metribuzin phenotype in the field (soybeans): mixed phenotype of both tolerance and sensitivity
- PERCENT CONTROL (ACTUAL) (velvetleaf; Table 8-C, velvetleaf, 24 days, dose 420 g/ha): 22.0%
- PERCENT CONTROL (ACTUAL) (velvetleaf; Table 8-C, velvetleaf, 24 days, dose 840 g/ha): 68.0%
- PERCENT CONTROL (ACTUAL) (velvetleaf; Table 8-D, velvetleaf, 24 days, dose 420 g/ha): 22.0%
- PERCENT CONTROL (ACTUAL) (velvetleaf; Table 8-D, velvetleaf, 24 days, dose 840 g/ha): 68.0%
